# Structures can show the parent of a compound that is named as a salt.
# How the values were obtained:
# [1] = tested on: Differentiated L6-myotubes; assay: Glucose uptake in differentiated L6-myotubes (3H-2-deoxy-glucose); assay type: cell-based; settings: agonist final concentration 1×10^−5; L6-myotubes; 3H-2-deoxy-glucose uptake; relative to isoproterenol; read-out: Biological example 1: glucose uptake, activity compared to that of isoproterenol
# [2] = tested on: Intracellular cAMP levels in differentiated cells (L6-myotubes); assay: Measurement of intracellular cAMP levels (alpha screen cAMP kit); assay type: cell-based; settings: 0.25 h; agonist final concentration 1×10-^5, 15 min; differentiated cells; relative to isoproterenol; read-out: Biological example 2: intracellular cAMP levels, activity compared to that of isoproterenol
# Method: L6-myoblasts were grown in Dulbecco's Modified Eagle's Medium (DMEM) containing 4.5 g/l glucose supplemented with 10% fetal bovine serum, 2 mM L-Glutamine, 50 U/ml penicillin, 50 μg/ml streptomycin and 10 mM HEPES. Cells were plated at 1×10^5 cells per ml in 24-well plates. After reaching 90% confluence the cells were grown in medium containing 2% FBS for 7 days where upon cells differentiated into myotubes. Differentiated cells were serum-starved over night and stimulated with agonist, final concentration 1×10-^5, for 15 min in stimulation buffer (HBSS supplemented with 1% BSA, 5 mM HEPES and 1 mM IBMX, pH 7.4) The medium was then aspirated and to end the reaction 100 μL of 95% EtOH was added to each well of a 24-well plate and cells were kept in −20° C. over night. The EtOH was let to evaporate and 500 μL of lysis buffer (1% BSA, 5 mM HEPES and 0.3% Tween-20, pH 7.4) was added to each well before put in −80° C. for 30 min and then kept in −20° C. Intracellular cAMP levels were detected using an alpha screen cAMP kit (6760635D from Perkin Elmer). The activity for each compound is compared to that of isoproterenol.
smiles,measurement,setting,value
"CCC[C@H]1CCC[C@@H]([C@H](O)c2cccc(O)c2)N1 [Example 37, (R)-(3-Hydroxyphenyl)((2S, 6S)-6-propylpiperidin-2-yl)methanol]",Emax,[1],50 to 75%
same,Emax,[2],< 25%
"CCC[C@@H]1CC[C@H]([C@@H](O)c2cccc(F)c2)N1 [Example 39, (S)-(3-Fluorophenyl)((2R,5R)-5-propylpyrrolidin-2-yl)methanol Hydrochloride]",Emax,[1],50 to 75%
same,Emax,[2],< 25%
"CCC[C@@H]1CC[C@H]([C@@H](O)c2cccc(O)c2)N1 [Example 40, 3-((S)-Hydroxy((2R,5R)-5-propylpyrrolidin-2-yl)methyl)phenol]",Emax,[1],25 to 50%
same,Emax,[2],< 25%
"CCC[C@H]1CC[C@@H]([C@H](O)c2cccc(F)c2)N1 [Example 41, (R)-(3-fluorophenyl)((2S,5S)-5-propylpyrrolidin-2-yl)methanol Hydrochloride]",Emax,[1],50 to 75%
same,Emax,[2],< 25%
"CCC[C@H]1CC[C@@H]([C@@H](O)c2cccc(F)c2)N1 [Example 42, (S)-(3-Fluorophenyl)((2S,5S)-5-propylpyrrolidin-2-yl)methanol Hydrochloride]",Emax,[1],50 to 75%
same,Emax,[2],< 25%
"CCC[C@@H]1CC[C@@H]([C@H](O)c2cccc(F)c2)N1 [Example 43, (R)-(3-Fluorophenyl)((2S,5R)-5-propylpyrrolidin-2-yl)methanol Hydrochloride]",Emax,[1],25 to 50%
same,Emax,[2],< 25%
"CCC[C@@H]1CC[C@@H]([C@@H](O)c2cccc(F)c2)N1 [Example 44, (S)-(3-Fluorophenyl)((2S,5R)-5-propylpyrrolidin-2-yl)methanol Hydrochloride]",Emax,[1],50 to 75%
same,Emax,[2],< 25%
"CCC[C@H]1CC[C@H]([C@H](O)c2cccc(F)c2)N1 [Example 45, (R)-(3-Fluorophenyl)((2R,5S)-5-propylpyrrolidin-2-yl)methanol]",Emax,[1],50 to 75%
same,Emax,[2],< 25%
"CCC[C@@H]1CC[C@H]([C@H](O)c2cccc(Cl)c2)N1 [Example 47, (R)-(3-Chlorophenyl)((2R,5R)-5-propylpyrrolidin-2-yl)methanol Maleate]",Emax,[1],50 to 75%
same,Emax,[2],< 25%
